{
  "source": "patent US20240408053A1",
  "about": "“ENTERITIS-SUPPRESSING COMPOSITION” (KOBE GAKUIN EDUCATIONAL FOUNDATION, priority 2021, published 2024)",
  "format_in_all_cases": "in vivo, mice",
  "key": {"[1]": {"tested_on": "ethanol-induced lesion in mouse colon", "experiment": "Microscopic evaluation of ethanol-induced lesion in mouse colon (HE, TB, MUC2 staining), 2 weeks"}, "NF-κB p65": {"tested_on": "NF-κB p65", "experiment": "NF-κB p65 activation level in colon tissue extract by ELISA", "details": "group ES: 2.0% v/v ethanol diet + 2.5 mg sesaminol per day oral, 2 weeks, vs group E", "description": "It has been reported that chronic consumption of an excessive amount of ethanol can induce inflammation associated with tumor formation in colon tissue. Therefore, in order to verify whether oral administration of sesaminol has a preventive effect on ethanol-induced colitis, the expression levels of inflammatory cytokines (TNF-α and IL-6) and chemokine (MCP-1) in the large intestinal lamina propria of the mice in the four groups (groups C, S, E, and ES) were examined by qRT-PCR and ELISA. The NF-κB activity in the mice in the four groups was also examined. NF-κB is a transcription factor that is involved in expression of genes regulating inflammation and is activated by exposure of immune cells to pro-inflammatory factors."}, "[2]": {"experiment": "AST and ALT activities and TG concentration in the plasma, 4 weeks", "details": "mean ±SD", "experimental": "The liver function and plasma lipid level in the mice in each group were examined by measuring the percentage of the liver weight relative to the body weight, the triglyceride (TG) concentration in the liver, the aspartate aminotransferase (AST) activity in the plasma, the alanine aminotransferase (ALT) activity in the plasma, and the TG concentration in the plasma of the mice in each group.\nThe AST and ALT activities and TG concentration in the plasma were measured according to the product protocol using dedicated reagent kits for each test item (L-Type Wako AST, L-Type Wako ALT, and L-Type Wako TG M, produced by FUJIFILM Wako Pure Chemical Corporation)."}, "[3]": {"tested_on": "ethanol-induced lesion in mouse liver", "experiment": "HE or Oil Red O staining of liver sections (ethanol-induced alcoholic steatohepatitis)", "details": "group ES: 2.0% v/v ethanol diet + 2.5 mg sesaminol per day oral, 4 weeks; group E significant increase", "description": "Additionally, liver sections of the mice in each group (groups C, E, S, and ES) were stained with HE or Oil Red 0, and observed under a microscope.\nLiver tissue samples were each fixed in a 10% v/v neutral formaldehyde solution overnight at room temperature and paraffin-embedded. The liver tissue sections were then stained with HE reagent, and frozen tissue sections were stained with Oil Red O reagent. Each stained specimen was observed under a microscope and subjected to image analysis."}, "[4]": {"details": "group ES: 2.0% v/v ethanol diet + 2.5 mg sesaminol per day oral, vs group E"}, "[5]": {"details": "EtOH (2.0% v/v) + Sesaminol group ES"}},
  "note": "Marks after values point to notes of the source that are not given here.",
  "data": [
    {"smiles": "Oc1cc2c(cc1C1OCC3C(c4ccc5c(c4)OCO5)OCC13)OCO2", "note": "(centres unmarked) [Sesaminol]", "values": [
      {"measurement": "degree of lesion in colonic epithelium", "setting": "[1]; [4]", "result": "smaller degree of lesion compared with that observed in group E"},
      {"measurement": "microscopic lesion score of colon tissue", "setting": "[1]; [4]", "result": "significantly lower than that of group E"},
      {"measurement": "lesions in colonic epithelium", "setting": "[1]; group S: 2.5 mg sesaminol per day oral, no ethanol", "result": "No obvious lesions"},
      {"measurement": "NF-κB p65 activation level", "setting": "NF-κB p65", "result": "significantly lower than that in group E"},
      {"measurement": "Plasma ALT", "setting": "[2]; [5]", "result": "45.8 ± 6.6*^, †, ### U/L"},
      {"measurement": "Plasma AST", "setting": "[2]; [5]", "result": "43.5 ± 7.6", "unit": "U/L"},
      {"measurement": "Plasma TG", "setting": "[2]; [5]", "result": "0.65 ± 0.13", "unit": "mmol/L"},
      {"measurement": "Plasma ALT", "setting": "[2]; Sesaminol (2.5 mg/d) group S", "result": "33.3 ± 5.7", "unit": "U/L"},
      {"measurement": "Plasma AST", "setting": "[2]; Sesaminol (2.5 mg/d) group S", "result": "41.3 ± 6.8", "unit": "U/L"},
      {"measurement": "Plasma TG", "setting": "[2]; Sesaminol (2.5 mg/d) group S", "result": "0.53 ± 0.14", "unit": "mmol/L"},
      {"measurement": "lipid droplets in Oil Red O-stained liver tissue", "setting": "[3]", "result": "decrease in lipid droplets"}
    ]}
  ]
}
